Experimental data: BindingDB's records for doi:10.1021/acschembio.6b00511 (Novartis Institutes For Biomedical Research, 2016)
Where “and” joins values, the source holds several entries; their conditions need not be identical. Equal entries are not always repeated.

Columns and labels:
[1] = target: T1, Serine/threonine-protein kinase WNK1 [1-491] (Homo sapiens, UniProt Q9H4A3); assay: WNK In Vitro Radiometric Assays; conditions: pH 7.3
T1 construct: 1-491
Experimental: (§1) The assay utilized 5 to 10 nM of WNK1−4 protein compared to 25 nM used for mobility shift assay, enabling a more accurate comparison of selectivity among potent inhibitors. Assays measured the incorporation of 33P from [γ-33P]ATP into myelin basic protein (MBP) coated in the wells of 96-well ScintiPlates (PerkinElmer). Each well of the MBP-coated ScintiPlates held 100 μL of a solution containing 20 mM HEPES at pH 7.3, 5 mM MnCl2 (WNK1 and WNK4) or 3 mM MnCl2 (WNK2 and WNK3), 0.01% Tween-20 (WNK1, WNK3, and WNK4) or 0.02% Tween-20 (WNK2), 1 mM TCEP, 2% DMSO, 1 μM ATP (WNK1, WNK3, and WNK4) or 2 μM ATP (WNK2), 1 μCi [γ -33P]ATP (WNK1, WNK2, WNK4) or 0.25 μCi [γ-33P]ATP (WNK3), WNK kinase enzyme (5 nM WNK1, 10 nM WNK2, 5 nM WNK3, or 10 nM WNK4), and the compound at the desired concentration. The plate was sealed and mixed for 20 s at 800 rpm on a benchtop plate shaker. The plate was then placed in a 25 °C shaking incubator at 175 rpm. Reactio

[2] = target: T2, Serine/threonine-protein kinase WNK2 [166-489] (Homo sapiens, UniProt Q9Y3S1); assay: WNK In Vitro Radiometric Assays; conditions: pH 7.3
T2 construct: 166-489
Experimental: as §1

[3] = target: T3, Serine/threonine-protein kinase WNK3 [1-434] (Homo sapiens, UniProt Q9BYP7); assay: WNK In Vitro Radiometric Assays; conditions: pH 7.3
T3 construct: 1-434
Experimental: as §1

[4] = target: T4, Serine/threonine-protein kinase WNK4 [1-444] (Homo sapiens, UniProt Q96J92); assay: WNK In Vitro Radiometric Assays; conditions: pH 7.3
T4 construct: 1-444
Experimental: as §1

[5] = target: T1, Serine/threonine-protein kinase WNK1 [1-491]; assay: WNK1 Mobility Shift Assay; conditions: pH 7.5
Experimental: A mixture of fluorescein labeled OSR1 peptide substrate (Toray Research Center, Inc.) and ATP was prepared with final concentrations of 10 and 25 μM, respectively, in 7 μL of reaction buffer [20 mM HEPES Na (pH 7.5), 1 mM MnCl2, 0.01% Tween 20, and 2 mM DTT]. Compounds at final concentrations from 0.003 to 100 μM in 1 μL were added to the peptide/ATP mixture at a final DMSO concentration of 10%. The reaction was initiated by the addition of 2 μL of GST-WNK1 (1−491; Carna Biosciences) that was 86% pure at a final concentration of 25 nM in a 384-well plate. After incubation for 3 h at 25 °C, where 15% conversion of the substrate to the product was observed, 10 μL of a stop buffer containing 0.2% coating-3 reagent with 2 mM EDTA was added. For 800 μM ATP, the WNK1 assay was performed for 50 min at 25 °C, where 15% conversion of the substrate to the product was observed. Aliquots from each well were transferred onto a four-sipper chip on a Labchip3

T1 sequence (Q9H4A3 1-491): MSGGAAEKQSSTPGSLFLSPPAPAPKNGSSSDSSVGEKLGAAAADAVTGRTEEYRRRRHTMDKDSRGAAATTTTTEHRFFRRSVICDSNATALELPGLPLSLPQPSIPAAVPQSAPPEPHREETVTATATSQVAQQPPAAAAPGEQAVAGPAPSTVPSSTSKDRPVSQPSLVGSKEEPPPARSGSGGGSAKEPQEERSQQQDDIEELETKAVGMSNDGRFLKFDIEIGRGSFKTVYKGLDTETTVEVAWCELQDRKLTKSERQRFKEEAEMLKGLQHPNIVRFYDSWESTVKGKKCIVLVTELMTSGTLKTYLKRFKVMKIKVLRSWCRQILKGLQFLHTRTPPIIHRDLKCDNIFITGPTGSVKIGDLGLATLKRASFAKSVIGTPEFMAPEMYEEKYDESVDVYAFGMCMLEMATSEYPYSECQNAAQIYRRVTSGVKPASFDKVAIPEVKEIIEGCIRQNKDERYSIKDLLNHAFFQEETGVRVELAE
T3 sequence (Q9BYP7 1-434): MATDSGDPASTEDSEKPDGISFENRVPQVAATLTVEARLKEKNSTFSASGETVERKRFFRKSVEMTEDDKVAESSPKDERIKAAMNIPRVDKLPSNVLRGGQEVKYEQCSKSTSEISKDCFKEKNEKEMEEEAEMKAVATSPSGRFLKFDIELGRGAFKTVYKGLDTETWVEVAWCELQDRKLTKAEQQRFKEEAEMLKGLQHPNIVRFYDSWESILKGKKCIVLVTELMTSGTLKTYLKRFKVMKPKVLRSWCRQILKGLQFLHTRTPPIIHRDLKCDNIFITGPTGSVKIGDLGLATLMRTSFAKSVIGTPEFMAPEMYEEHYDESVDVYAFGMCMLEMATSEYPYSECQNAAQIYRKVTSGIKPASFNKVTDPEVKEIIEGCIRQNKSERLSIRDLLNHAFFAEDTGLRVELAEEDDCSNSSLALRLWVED
T4 sequence (Q96J92 1-444): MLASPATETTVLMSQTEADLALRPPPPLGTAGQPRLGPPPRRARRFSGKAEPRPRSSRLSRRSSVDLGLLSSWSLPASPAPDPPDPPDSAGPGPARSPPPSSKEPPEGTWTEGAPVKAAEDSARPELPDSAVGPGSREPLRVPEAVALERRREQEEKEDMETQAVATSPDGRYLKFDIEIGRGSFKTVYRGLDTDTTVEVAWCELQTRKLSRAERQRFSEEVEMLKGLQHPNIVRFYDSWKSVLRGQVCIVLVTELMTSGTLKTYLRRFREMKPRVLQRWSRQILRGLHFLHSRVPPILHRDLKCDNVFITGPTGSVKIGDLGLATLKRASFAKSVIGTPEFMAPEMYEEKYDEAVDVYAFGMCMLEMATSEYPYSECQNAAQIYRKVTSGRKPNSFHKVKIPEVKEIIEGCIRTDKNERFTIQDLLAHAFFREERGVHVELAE
T2 sequence (Q9Y3S1 166-489): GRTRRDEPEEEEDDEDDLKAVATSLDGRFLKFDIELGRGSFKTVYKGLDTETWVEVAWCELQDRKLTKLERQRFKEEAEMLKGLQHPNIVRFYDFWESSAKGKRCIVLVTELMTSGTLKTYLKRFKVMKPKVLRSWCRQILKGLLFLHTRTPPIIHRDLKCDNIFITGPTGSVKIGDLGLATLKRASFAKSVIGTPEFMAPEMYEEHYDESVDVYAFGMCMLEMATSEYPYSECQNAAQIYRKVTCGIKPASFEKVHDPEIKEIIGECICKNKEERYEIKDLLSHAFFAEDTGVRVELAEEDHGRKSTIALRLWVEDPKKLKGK

IC50 [1]: 64 nM | IC50 [2]: 50 nM | IC50 [3]: 377 nM | IC50 [4]: 187 nM | IC50 [5]: 180 nM and 150 nM
SMILES: CNc1nc(-c2ccc3c(c2)CCN3C(=O)c2ccccc2OCc2ccc(Cl)cc2)cs1 [(2-((4-Chlorobenzyl)oxy)phenyl)(5-(2-(methylamino)thiazol-4-yl)indolin-1-yl)methanone (Compound 2)]
